How the values were obtained:
mock-infected MT-4 cells [1] = assay: Test B: cytotoxicity in mock-infected MT-4 cells engineered with GFP under a constitutional promoter; format: cell-based
Procedure: An […] T4-cell line, MT-4, which was previously shown (Koyanagi et al., Int. J. Cancer, 36, 445-451, 1985) to be highly susceptible to and permissive for HIV infection, served as the target cell line. In these cells, engineered with GFP (and an HIV-specific promotor), ongoing HIV-infection was measured fluorometrically. Cytotoxicity is measured in the same cells, but engineered with GFP under a constitutional promoter. The infection (or inhibition thereof) of HIV infected cells and the flourescence of mock-infected cells is assessed by the fluorescent GFP signal generated by the two above mentioned cell lines.

mock-infected MT-4 cells [2] = assay: Test A: cytotoxicity in mock-infected MT-4 cells (MTT); format: cell-based
Procedure: (§1) A rapid, sensitive and automated assay procedure was used for the in vitro evaluation of anti-HIV agents. An […] T4-cell line, MT-4, which was previously shown (Koyanagi et al., Int. J. Cancer, 36, 445-451, 1985) to be highly susceptible to and permissive for HIV infection, served as the target cell line. Inhibition of the HIV-induced cytopathic effect was used as the end point. The viability of both HIV- and mock-infected cells was assessed spectrophotometrically via the in situ reduction of 3-(4,5-dimethylthiazol-2-yl)-2,5-diphenyltetrazolium bromide (MTT). […] The percent protection achieved by the compound in HTV-infected cells was calculated by the following formula:
(§2) [formula] whereby (ODT)HIV is the optical density measured with a given concentration of the test compound in HIV-infected cells; (ODC)HIV is the optical density measured for the control unteated HIV-infected cells; (ODC)MOCK is the optical density measured for the control untreated mock-infected cells; all optical density values were determined at 540 nm. […] The ratio of CC50 to IC50 was defined as the selectivity index (SI).

HIV = assay: Test A: inhibition of the HIV-induced cytopathic effect in MT-4 cells (MTT); format: cell-based; details: Test A; MT-4 cells, MTT; pIC50 = −log IC50, dose achieving 50% protection
Procedure: as §1, §2

[3] = Test A, mock-infected MT-4 cells, MTT, 50% cytotoxic concentration (CC50 in M)

| SMILES | melting point [°C] | PCC50 (mock-infected MT-4 cells [1]) | PCC50 (mock-infected MT-4 cells [2]) | pIC50 (M) (HIV) | PCC50 (mock-infected MT-4 cells [2]; [3]) |
| --- | --- | --- | --- | --- | --- |
| Cc1cc(CCC#N)cc(C)c1Nc1nnc(Cl)c(Nc2ccc(C#N)cc2)n1 | 266 to 267 |  |  |  |  |
| N#CC=Cc1cc(Br)c(Nc2nnc(Cl)c(Nc3ccc(C#N)cc3)n2)c(Br)c1 (mixture of isomers) [Compound 78] |  | 5.1 |  |  |  |
| Cc1cc(CCC#N)cc(C)c1Nc1nc(Nc2ccc(C#N)cc2)nnc1C [Compound 2] |  |  | <4.0 | 9.0 |  |
| Cc1cc(C#N)cc(C)c1Nc1nc(Nc2ccc(C#N)cc2)nnc1C [Compound 5] |  |  | <4.0 | 8.7 |  |
| Cc1cc(C)c(Nc2cnnc(Nc3ccc(C#N)cc3)n2)c(C)c1 [Compound 7] |  |  |  | 9.3 | 5.5 |
| Cc1cc(/C=C/C#N)cc(C)c1Nc1cnnc(Nc2ccc(C#N)cc2)n1 [Compound 8] |  |  | <4.0 | 7.3 |  |
| Cc1cc(CCC#N)cc(C)c1Nc1cnnc(Nc2ccc(C#N)cc2)n1 [Compound 9] |  |  | <4.0 | 7.8 |  |
| N#Cc1ccc(Nc2nncc(Nc3c(Cl)cc(C#N)cc3Cl)n2)cc1 [Compound 10] |  |  |  | 7.6 | <4.5 |
| COc1cc(C)c(Nc2nc(Nc3ccc(C#N)cc3)nnc2C)c(C)c1 [Compound 11] |  |  | 5.5 | 9.2 |  |
| Cc1cc(C)c(Nc2nc(Nc3ccc(C#N)cc3)nnc2C)c(C)c1 [Compound 12] |  |  |  | 8.9 |  |
| Cc1cc(/C=C/C#N)cc(C)c1Nc1nc(Nc2ccc(C#N)cc2)nnc1C [Compound 13] |  |  | <4.0 | 8.2 |  |
| COc1cc(C)c(Nc2cnnc(Nc3ccc(C#N)cc3)n2)c(C)c1 [Compound 14] |  |  | <4.0 | 8.8 |  |
| Cc1cc(Br)cc(C)c1Nc1cnnc(Nc2ccc(C#N)cc2)n1 [Compound 15] |  |  | <4.0 | 8.8 |  |
| Cc1cc(Br)cc(C)c1Nc1nc(Nc2ccc(C#N)cc2)nnc1C [Compound 16] |  |  | 4.2 | 8.7 |  |
| Cc1cc(C(C)(C)C)cc(C)c1Nc1cnnc(Nc2ccc(C#N)cc2)n1 [Compound 17] |  |  | <4.0 | 8.0 |  |
| Cc1cc(C(C)(C)C)cc(C)c1Nc1nc(Nc2ccc(C#N)cc2)nnc1C [Compound 18] |  |  | <4.0 | 8.1 |  |
| Cc1cc(/C=C\C#N)cc(C)c1Nc1nc(Nc2ccc(C#N)cc2)nnc1C [Compound 19] |  |  | 4.6 | 9.0 |  |
| Cc1cc(CC#N)cc(C)c1Nc1nc(Nc2ccc(C#N)cc2)nnc1C [Compound 20] |  |  | <4.6 | 8.6 |  |
| Cc1cc(/C=C/C(=O)N(C)C)cc(C)c1Nc1nc(Nc2ccc(C#N)cc2)nnc1C [Compound 22] |  |  | <4.6 | 7.1 |  |
| COc1cc(C)cc(C)c1Nc1nc(Nc2ccc(C#N)cc2)nnc1C [Compound 23] |  |  | 6.4 | 8.9 |  |
| Cc1cc(CC#N)cc(C)c1Nc1cnnc(Nc2ccc(C#N)cc2)n1 [Compound 24] |  |  | <4.6 | 8.8 |  |
| COc1cc(OC)c(Nc2nc(Nc3ccc(C#N)cc3)nnc2C)c(OC)c1 [Compound 25] |  |  | 4.4 | 8.6 |  |
| Cc1cc(C)c(Nc2nc(Nc3ccc(C#N)cc3)nnc2C)c(CC#N)c1 [Compound 27] |  |  | <4.0 | 8.3 |  |
| Cc1cc(C(=O)N(C)C)cc(C)c1Nc1nc(Nc2ccc(C#N)cc2)nnc1C [Compound 31] |  |  | <4.0 | 7.5 |  |
| COc1cc(/C=C/C#N)cc(OC)c1Nc1nc(Nc2ccc(C#N)cc2)nnc1C [Compound 33] |  |  | 5.4 | 8.6 |  |
| Cc1nnc(Nc2ccc(C#N)cc2)nc1Nc1c(Cl)cc(/C=C/C#N)cc1Cl [Compound 34] |  |  | 5.0 | 8.6 |  |
| CCOc1cc(C)c(Nc2nc(Nc3ccc(C#N)cc3)nnc2C)c(C)c1 [Compound 35] |  |  | <4.6 | 8.2 |  |
| CNC(=O)c1cc(C)c(Nc2cnnc(Nc3ccc(C#N)cc3)n2)c(C)c1 [Compound 37] |  |  | 4.3 | 7.0 |  |
| Cc1cc(OCC#N)cc(C)c1Nc1nc(Nc2ccc(C#N)cc2)nnc1C [Compound 38] |  |  | 4.7 | 8.9 |  |
| Cc1cc(/C=C/C(=O)N2CCCC2)cc(C)c1Nc1nc(Nc2ccc(C#N)cc2)nnc1C [Compound 39] |  |  | <4.0 | 7.2 |  |

— patent US7585861B2, “HIV inhibiting 1,2,4-triazines” (Janssen Pharmaceutica, N.V., priority 2003, dated 2009)
